Numbered stars: 1 amine (or outer) side, 2 acyl side, 3 side chain; on linkers, the order of the positions; unused ones are H or OH. Bridge positions count the residues as written; N and C are the ends. Square brackets hold non-standard residues; d marks the D form. Peptide text beside a SMILES is read from it. I, II: the chains in the order shown. Actinocin(9to1) = Cc1c2oc3c(C)ccc(C(=O)[*:1])c3nc-2c(C(=O)[*:2])c(N)c1=O; NMeV = CN[C@H](C(=O)O)C(C)C; Sar = CNCC(=O)O
What was measured:
SV-80 cells = experiment: Sensitization of SV-80 cells to the cytolytic effect of TNF, neutral red uptake; type: cell-based, human; conditions: for Cell viability upon treatment with TNF (500 U/ml), pretreatment with IL-1 (2 U/ml), OD540 / Cell viability upon treatment with TNF (500 U/ml), pretreatment with IL-1 (2 U/ml), %: 4 h pretreatment with IL-1 2 U/ml; for Cell viability upon treatment with TNF (500 U/ml), pretreatment with IL-1 (2 U/ml), OD540 / Cell viability upon treatment with TNF (500 U/ml), pretreatment with IL-1 (2 U/ml), % / Cell viability upon treatment with TNF (500 U/ml), pretreatment with TNF (20 U/ml), OD540 / Cell viability upon treatment with TNF (500 U/ml), pretreatment with TNF (20 U/ml), %: then TNF 500 U/ml for 12 h with sensitizing agent; for Cell viability upon treatment with TNF (500 U/ml), pretreatment with IL-1 (2 U/ml), % / Cell viability upon treatment with TNF (500 U/ml), pretreatment with TNF (20 U/ml), %: % of sensitizing agent alone; for Cell viability upon treatment with TNF (500 U/ml), pretreatment with TNF (20 U/ml), OD540 / Cell viability upon treatment with TNF (500 U/ml), pretreatment with TNF (20 U/ml), %: 4 h pretreatment with TNF 20 U/ml; for Cell viability in absence of TNF, OD540: 12 h with sensitizing agent alone (cycloheximide 50 μg/ml, emetine 10 μg/ml, actinomycin D 5 μg/ml); for Cell viability upon treatment with TNF (500 U/ml), no pretreatment, OD540: TNF 500 U/ml for 12 h together with sensitizing agent; for Cell viability upon treatment with TNF (500 U/ml), no pretreatment, %: TNF 500 U/ml for 12 h with sensitizing agent, % of viability with sensitizing agent alone
Method: Cytolytic and protective (desensitization) activities of the cytokines were determined in all the figures using SV-80 cells which, for measurement of cytolytic activity, were incubated with serial dilutions of the tested cytokine for 12 hours together with 50 μg/ml CHI; for measuring protective activity, they were incubated for 4 hours with the tested cytokine and then for 12 hours with TNF, at the indicated concentrations, together with 50 μg/ml CHI. The extent of cell killing was quantitated by the neutral-red uptake assay. A unit of cytolytic activity is defined as the concentration of the tested cytokine at which the amount of cells remaining viable was 50% of those that remained viable on incubation with CHI alone. A unit of protective activity is defined as that cytokine concentration protecting 50% of the cells from killing by TNF.
IL-1 or TNF provide protection not only against the cytotoxicity mediated in the presence of CHI, but also against killing of cells in which synthesis of proteins has been suppressed by other agents.
SV-80 cells following 4 h pretreatment with IL1 or TNF or without such
pretreatment were tested for their vulnerability to the cytolytic effect
of TNF applied for 12 h together with the indicated sensitizing agents.
Viability of the cells is presented as neutral red uptake (OD540)
and, in cultures with TNF, percentagewise as compared to the viability in
cultures incubated with the sensitizing agent alone.

Balb/c mice = experiment: Lethality of TNF and IL-1 in mice sensitized with Act-D or GalN; type: in vivo, mouse; conditions: i.p., sensitizer injected 10 minutes before TNF or IL-1
Method: Nine to thirteen weeks old Balb/c mice were used in all experiments. TNF, IL-1, LPS, actinomycin-D (Act-D) and D-galactosamine (GalN) were solubilized in PBS and injected i.p.; each in aliquots of 0.5 ml. For lethality determination TNF, IL-1 or LPS were administered alone or 10 minutes following injection of Act-D or GalN; for desensitization experiments mice were injected with TNF or IL-1 12 h prior to a challenge consisting of the same regimen as the lethality testing. Following treatments the mice were continuously observed for a period of 72 h in order to determine the time of their death. In all cases, mice that survived 72 h appeared completely normal at that time. […] All experiments were performed in duplicate with qualitatively the same results. Two mice were examined for each experimental point, in each of the experiments. Their actual survival time as well as the average of the survival time of the two mice used for each of the points are presented.
In an attempt to elucidate the nature of the sensitizing effect of Act-D and of GalN, it was tested whether injection of TNF or IL-1 in the absence of these agents affects the response of mice to a subsequent injection of TNF or IL-1 together with Act-D or GalN. […]

[1] = test system: receptors for TNF on SV-80 cells; experiment: Binding of radiolabelled TNF to SV-80 cells, Scatchard plot analysis; type: cell-based, human; conditions: Scatchard analysis of 125I-TNF binding
Method: (PMA-4-beta-phorbol-12-myristate-13-acetate).
Binding of ^125 I-rTNF (at 3.6 ng/ml), ^125 I-rIL-1 (at 49 ng/ml) and ^125 I-rIFN-gamma (at 13 ng/ml) to the indicated cells was determined at […] as described below. Competition of IL-1 and TNF with each other for binding to their receptors was examined by applying the nonlabelled cytokines, at the indicated concentrations, simultaneously with the labelled proteins to the binding asay. The effect of pretreatment with IL-1 or TNF was examined by applying the proteins on the cells at 37° C. for 4 h prior to application of the labelled cytokines. Human TNF and IFN-gamma were radiolabelled as previously described (30, 44); the first with the chloramine T reagent to specific radioactivity of 42 Ci/g, and the second with the Bolton and Hunter reagent to specific radioactivity of 18 Ci/g. IL-1 was radioiodinated with the chloramine T reagent (31) to specific radioactivity of 40 Ci/g. Recovery of bioactivity following the iodination, as estimated by measuring the protective effect of the protein against the cytotoxicity of TNF (25) was over 95%. […] Specific binding was calculated by subtracting the values of nonspecific binding from the binding observed with the labelled cytokines alone. […]

Structure (SMILES)	Cell viability upon treatment with TNF (500 U/ml), pretreatment with IL-1 (2 U/ml), OD540 (SV-80 cells)	Cell viability upon treatment with TNF (500 U/ml), pretreatment with IL-1 (2 U/ml), % (SV-80 cells)	Cell viability upon treatment with TNF (500 U/ml), pretreatment with TNF (20 U/ml), OD540 (SV-80 cells)	Cell viability upon treatment with TNF (500 U/ml), pretreatment with TNF (20 U/ml), % (SV-80 cells)	Cell viability in absence of TNF, OD540 (SV-80 cells)	Cell viability upon treatment with TNF (500 U/ml), no pretreatment, OD540 (SV-80 cells)	Cell viability upon treatment with TNF (500 U/ml), no pretreatment, % (SV-80 cells)	Sensitization of mice to the lethal effect of TNF and IL-1 (Balb/c mice)	Effect on number and affinity of binding sites for TNF [1]
C[C@@H]1C[C@@H]([C@H](O)CC2CC(=O)NC(=O)C2)C(=O)[C@@H](C)C1 [cycloheximide]	0.163 OD540	72%	0.195 OD540	86%	0.226 OD540	0.020 OD540	9%	–	–
N[C@H]1C(O)O[C@H](CO)[C@H](O)[C@@H]1O (stereo partly drawn) [GalN, D-galactosamine]	–	–	–	–	–	–	–	sensitize mice to the lethal effect of TNF and IL-1	–
Cc1c2oc3c(C)ccc(C(=O)N[C@@H]4C(=O)N[C@H](C(C)C)C(=O)N5CCC[C@H]5C(=O)N(C)CC(=O)N(C)[C@@H](C(C)C)C(=O)O[C@@H]4C)c3nc-2c(C(=O)N[C@@H]2C(=O)N[C@H](C(C)C)C(=O)N3CCC[C@H]3C(=O)N(C)CC(=O)N(C)[C@@H](C(C)C)C(=O)O[C@@H]2C)c(N)c1=O [actinomycin D] (I: T[dV]P[Sar][NMeV] / II: T[dV]P[Sar][NMeV]; ester I:1-I:C, II:1-II:C; linker I:N-II:N via Actinocin(9to1))	0.215 OD540	88%	0.236 OD540	97%	0.243 OD540	0.052 OD540	21%	sensitize mice to the lethal effect of TNF and IL-1	–
CCCCCCCCCCCCCC(=O)OC1C(C)C2(O)C(C=C(CO)CC3(O)C(=O)C(C)=CC32)C2C(C)(C)C12OC(C)=O (stereo not drawn) [PMA, 4-beta-phorbol-12-myristate-13-acetate]	–	–	–	–	–	–	–	–	affect only the number of binding sites for TNF and not their affinity
CC[C@H]1CN2CCc3cc(OC)c(OC)cc3[C@@H]2C[C@@H]1C[C@H]1NCCc2cc(OC)c(OC)cc21 [emetine]	0.220 OD540	84%	0.234 OD540	89%	0.262 OD540	0.029 OD540	11%	–	–

From patent US5211945A, “Compositions and methods for modulating the effect of TNF and IL-1” (priority 1986, dated 1993)
